Test results published in ChEMBL document CHEMBL2029345, “BC-spiro-estradiols. Synthesis and estrogen receptor binding affinity of four new estradiol isomers” (Bioorg Med Chem Lett, 2012).

Legend:
[1] = target: Estrogen receptor beta (Homo sapiens) (UniProt Q92731); experiment: Displacement of [3H]estradiol from human full length estrogen receptor beta by competitive radiometric assay relative to estradiol
[2] = target: T1, Estrogen receptor (Homo sapiens) (UniProt P03372); experiment: Displacement of [3H]estradiol from human full length estrogen receptor alpha by competitive radiometric assay relative to estradiol
T1 sequence (whole entry): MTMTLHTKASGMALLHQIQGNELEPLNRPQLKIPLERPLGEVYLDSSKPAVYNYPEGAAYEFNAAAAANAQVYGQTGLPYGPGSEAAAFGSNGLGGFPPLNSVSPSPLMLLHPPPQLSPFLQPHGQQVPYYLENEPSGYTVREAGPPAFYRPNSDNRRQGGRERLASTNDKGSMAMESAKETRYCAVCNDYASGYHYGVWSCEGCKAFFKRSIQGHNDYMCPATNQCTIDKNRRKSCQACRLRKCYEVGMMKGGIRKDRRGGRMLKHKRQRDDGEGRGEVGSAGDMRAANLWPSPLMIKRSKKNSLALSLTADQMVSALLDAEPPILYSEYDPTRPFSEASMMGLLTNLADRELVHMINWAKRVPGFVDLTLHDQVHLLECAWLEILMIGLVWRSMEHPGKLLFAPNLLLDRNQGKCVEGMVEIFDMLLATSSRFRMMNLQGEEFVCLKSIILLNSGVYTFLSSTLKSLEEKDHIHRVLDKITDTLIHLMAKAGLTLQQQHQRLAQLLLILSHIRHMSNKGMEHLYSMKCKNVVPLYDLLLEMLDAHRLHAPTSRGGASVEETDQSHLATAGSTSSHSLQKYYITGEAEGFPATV

Estrogen receptor beta (Homo sapiens), sequence (Q92731 whole entry): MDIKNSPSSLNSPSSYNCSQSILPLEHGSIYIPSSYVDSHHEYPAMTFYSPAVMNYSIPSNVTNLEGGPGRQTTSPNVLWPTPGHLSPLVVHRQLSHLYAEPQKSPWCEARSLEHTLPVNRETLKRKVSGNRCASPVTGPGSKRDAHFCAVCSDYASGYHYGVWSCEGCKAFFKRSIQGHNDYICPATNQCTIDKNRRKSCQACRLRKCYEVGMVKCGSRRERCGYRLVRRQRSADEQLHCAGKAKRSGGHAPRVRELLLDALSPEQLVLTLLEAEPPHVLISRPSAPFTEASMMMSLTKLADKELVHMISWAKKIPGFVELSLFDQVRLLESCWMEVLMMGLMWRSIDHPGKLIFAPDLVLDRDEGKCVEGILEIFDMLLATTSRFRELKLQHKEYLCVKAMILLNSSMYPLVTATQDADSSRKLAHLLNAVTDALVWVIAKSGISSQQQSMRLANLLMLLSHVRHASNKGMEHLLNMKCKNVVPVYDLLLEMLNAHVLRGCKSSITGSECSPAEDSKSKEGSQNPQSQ

SMILES	relative binding affinity (RBA) [1]	relative binding affinity (RBA) [2]
C[C@]12CC[C@@]3(C[C@H]1CC[C@H]2O)OCc1cc(O)ccc13	0.02	0.014
C[C@]12CC[C@]3(C[C@H]1CC[C@@H]2O)OCc1cc(O)ccc13	9.05	2.46
C[C@]12CC[C@H](c3ccc(O)cc3)C[C@@H]1CC[C@@H]2O	9.97	2.38
C[C@]12CC[C@]3(C[C@H]1CC[C@@H]2O)OCCc1cc(O)ccc13	3.47	0.31
C[C@]12CC[C@@H](c3ccc(O)cc3)C[C@H]1CC[C@H]2O	0.59	0.061
C[C@]12CC[C@]3(C[C@H]1CC[C@@H]2O)OC(=O)c1cc(O)ccc13	6.07	1.98

The remaining lines, values ahead:

relative binding affinity (RBA) [1]	relative binding affinity (RBA) [2]	SMILES
39.7	3.7	C[C@]12CC[C@@]3(CCCc4cc(O)ccc43)C[C@H]1CC[C@@H]2O
2.43	0.98	C[C@]12CC[C@@]3(CCc4cc(O)ccc43)C[C@@H]1CC[C@@H]2O
0.23	0.12	C[C@]12CC[C@]3(CCc4cc(O)ccc43)C[C@@H]1CC[C@@H]2O
40.5	6.4	C[C@]12CC[C@@]3(CCc4cc(O)ccc43)C[C@H]1CC[C@@H]2O
0.37	0.34	C[C@]12CC[C@]3(CCc4cc(O)ccc43)C[C@H]1CC[C@H]2O
0.16	0.05	C[C@]12CC[C@]3(CCCc4cc(O)ccc43)C[C@H]1CC[C@H]2O
